The source of these data is PMC9706657 (2022).

In general, Kd refers to the free concentration of one partner at which half of the binding sites on the other are occupied at equilibrium, for simple one-to-one binding. High values mean weaker binding, low ones tighter binding.

Assay in all cases: ITC
What all share (settings): Na+ 100 mM (NaCl), Mg2+ 5 mM (MgCl2); 5 mM MES, pH 5.5; aptamer on Au nanoparticle (20 µM aptananozyme in cell)

The subject of assay [1] is aptananozyme I ((1)-modified pA-AuNPs) (DNA, aptamer) CGACGCCAGTTTGAAGGTTCGTTCGCAGGTGTGGAGTGACGTCGGTAACAACAGTCAAAAAAAAAAAAAAAAAAAAGACTGTTGTTAC
In assay [2] the test system is aptananozyme II ((2)-modified pA-AuNPs) (DNA, aptamer) GTAACAACAGTCAAAAAAAAAAAAAAAAAAAAGACTGTTGTTACCGACGCCAGTTTGAAGGTTCGTTCGCAGGTGTGGAGTGACGTCG
Assay [3] has as its system aptananozyme V ((5)-modified pA-AuNPs) (DNA, aptamer) GTAACAACAGTCAAAAAAAAAAAAAAAAAAAAGACTGTTGTTACTGTATGTATGTACGACGCCAGTTTGAAGGTTCGTTCGCAGGTGTGGAGTGACGTCG
For assay [4], the system named is aptananozyme IV ((4)-modified pA-AuNPs) (DNA, aptamer) GTAACAACAGTCAAAAAAAAAAAAAAAAAAAAGACTGTTGTTACTGTATGTACGACGCCAGTTTGAAGGTTCGTTCGCAGGTGTGGAGTGACGTCG
Assay [5] concerns aptananozyme III ((3)-modified pA-AuNPs) (DNA, aptamer) GTAACAACAGTCAAAAAAAAAAAAAAAAAAAAGACTGTTGTTACTGTACGACGCCAGTTTGAAGGTTCGTTCGCAGGTGTGGAGTGACGTCG

Consider `NCCc1ccc(O)c(O)c1`, for which the Kd in assay [1] amounted to 1.65 ± 0.03 µM; in assay [2], 1.20 ± 0.06 µM; in assay [3] it was 0.93 ± 0.05 µM; in assay [4], 0.76 ± 0.03 µM; in assay [5], 0.95 ± 0.04 µM.

On to `N[C@@H](Cc1ccc(O)c(O)c1)C(=O)O`, for which the Kd in assay [4] was 4.2 µM.

Molecule `N[C@H](Cc1ccc(O)c(O)c1)C(=O)O` yielded a Kd in assay [4] of 11.3 µM.
